Laboratory results published in article PMC4112042, “Phase 1 dose-escalation study of the PARP inhibitor CEP-9722 as monotherapy or in combination with temozolomide in patients with solid tumors” (Cancer Chemotherapy and Pharmacology, 2014).

Columns and labels:
[1] = test system: PARP in peripheral blood mononuclear cells (PBMCs); experiment: PAR ELISA in PBMCs (PARP inhibition, pharmacodynamics); type: in vivo, human
Procedure: Pharmacodynamics were assessed by the measurement of PAR concentrations in PBMCs. PBMCs were isolated at site, and the frozen cell pellet was sent to a central laboratory (Trevigen Inc., Gaithersburg, MD, USA) for processing and analysis by PAR enzyme-linked immunosorbent assay (ELISA). Pharmacodynamic samples were collected on 2 consecutive days at screening visits and on days 1, 5 (pre-dose and 2 h [cycle 1 only], 6 h, and 24 h post-dose), and 8 (at the time of hematology laboratory testing). The PAR concentrations in the 2 screening samples and the day 1 pre-dose sample were averaged to provide a baseline value, and the percentage inhibition from baseline was calculated in the post-dose samples.

advanced solid tumors = experiment: Best tumor response according to RECIST 1.0; type: in vivo, human
Procedure: Tumor assessment was performed within 4 weeks before the first dose of study drug and within the fourth week of cycle 2 using computed tomography or magnetic resonance imaging with contrast. In patients who continued treatment, tumor assessment was performed every 2 cycles and at the end of treatment visit, at the discretion of the investigator.

[2] = Plasma pharmacokinetics of CEP-8983 after oral CEP-9722; type: in vivo, human; conditions: patients
Procedure: Pharmacokinetic serum samples were collected on day 1 of cycle 1 pre-dose and 0.5, 1, 2, 3, 4, 6, 8, 10, and 24 h post-dose; and on day 5 of cycle 1 and cycle 2 pre-dose, and 0.5, 1, 2, 3, 4, 6, 8, 10, 24, and 48 h post-dose. Urine samples were obtained on day 1 of cycle 1 during 4 intervals in the 24 h following study drug administration. Pharmacokinetic parameters (area under the plasma drug concentration–time curve from time 0 to infinity [AUC0–∞], AUC from time 0 to the time of the last measurable drug concentration [AUC0–t], AUC for 1 dosing interval [AUCτ] following multiple doses, maximum observed plasma concentration [C max], and time to maximum observed plasma concentration [T max]) were summarized at each visit (day 1 of cycle 1 and day 5 of cycles 1 and 2) using descriptive statistics.

[3] = test system: patients with advanced solid tumors; experiment: Phase 1 dose-escalation: safety, DLT and MTD
Procedure: The study consisted of a screening period to determine patient eligibility, a 14-day cycle in which CEP-9722 was administered once daily as monotherapy, and subsequent 28-day cycles in which CEP-9722 and temozolomide were administered as combination therapy. In cycle 1, the first patient in each dosing cohort received CEP-9722 on days 1, 3, 4, and 5, while other patients in each cohort received CEP-9722 on days 1–5. In cycle 2, patients received CEP-9722 and temozolomide on days 1–5 (Supplemental Fig.). CEP-9722 was escalated from a starting dose of 150 mg/day up to 1,000 mg/day, and temozolomide was given at the dose of 150 mg/m^2/day at all dose levels of CEP-9722. Both CEP-9722 and temozolomide were administered in the fasted state.
Patients were enrolled in cohorts of 3. Enrollment in the next cohort commenced when the third patient in the current cohort had completed day 28 of cycle 2 without a dose-limiting toxicity (DLT).
Safety was assessed using adverse event data, clinical laboratory test results, vital signs measurement, ECG findings, physical examination findings, ECOG performance status, and concomitant medication usage.

[4] = test system: breast and ovarian cancer patients with BRCA mutations; design: method as in PMID 20609467, PMID 20609468; conditions: monotherapy; cited from earlier work
[5] = test system: patients with metastatic melanoma; conditions: phase 2, metastatic melanoma, combination with temozolomide; cited from earlier work
[6] = cohort 1, 150 mg/day, 2 evaluated
[7] = cohort 2, 300 mg/day, 6 evaluated
[8] = cohort 3, 500 mg/day, 3 evaluated
[9] = cohort 4, 750 mg/day, 9 evaluated
[10] = cohort 5, 1,000 mg/day, 2 evaluated
[11] = cycle 1, single-agent CEP-9722, total, all dose levels (N=26)
[12] = cycles ≥2, CEP-9722 combined with temozolomide, 150 mg/day (N=3)
[13] = cycles ≥2, CEP-9722 combined with temozolomide, 300 mg/day (N=6)
[14] = cycles ≥2, CEP-9722 combined with temozolomide, 500 mg/day (N=3)
[15] = cycles ≥2, CEP-9722 combined with temozolomide, 750 mg/day (N=11)
[16] = cycles ≥2, CEP-9722 combined with temozolomide, 1,000 mg/day (N=3)

COc1cccc2[nH]c3c4c(c5c(c3c12)C(=O)N(CN1CCN(C)CC1)C5=O)CCC4 [CEP-9722]
PAR concentrations in PBMCs relative to baseline ([1]; 2 and 6 h post-dose, cycle 1, without temozolomide): reduction in PAR concentrations relative to baseline was observed | reduction in PAR concentrations in PBMCs ([1]; 6 h post-dose, cycle 2, with temozolomide): less marked | inhibitory effects on PAR production ([1]; 24 h post-dose sample): lost | Partial response (advanced solid tumors; [6]): 0 patients | Progressive disease (advanced solid tumors; [6]): 2 patients | Stable disease (advanced solid tumors; [6]): 0 patients | Partial response (advanced solid tumors; [7]): 0 patients | Progressive disease (advanced solid tumors; [7]): 5 patients | Stable disease (advanced solid tumors; [7]): 1 patients | Partial response (advanced solid tumors; [8]): 0 patients | Progressive disease (advanced solid tumors; [8]): 1 patients | Stable disease (advanced solid tumors; [8]): 2 patients | Partial response (advanced solid tumors; [9]): 0 patients | Progressive disease (advanced solid tumors; [9]): 8 patients | Stable disease (advanced solid tumors; [9]): 1 patients | Partial response (advanced solid tumors; [10]): 1 patients | Progressive disease (advanced solid tumors; [10]): 1 patients | Stable disease (advanced solid tumors; [10]): 0 patients | reduction in target lesions (RECIST) in the patient with partial response (advanced solid tumors; melanoma patient, 1,000 mg/day with temozolomide): 58% | duration of partial response (advanced solid tumors; melanoma patient, 1,000 mg/day with temozolomide, first observed after 6 cycles): 5.8 months | Progressive disease (advanced solid tumors; total, all cohorts, 22 evaluated): 17 patients | conversion of CEP-9722 into its active form [2]: rapid | Anorexia (treatment-related adverse event, all grades) [3, 11]: 3 (12) N patients (%) | Asthenia (treatment-related adverse event, all grades) [3, 11]: 5 (19) N patients (%) | Blood creatinine phosphokinase increased (treatment-related adverse event, all grades) [3, 11]: 2 (8) N patients (%) | Constipation (treatment-related adverse event, all grades) [3, 11]: 2 (8) N patients (%) | Diarrhea (treatment-related adverse event, all grades) [3, 11]: 7 (27) N patients (%) | Fatigue (treatment-related adverse event, all grades) [3, 11]: 4 (15) N patients (%) | Headache (treatment-related adverse event, all grades) [3, 11]: 10 (38) N patients (%) | Nausea (treatment-related adverse event, all grades) [3, 11]: 12 (46) N patients (%) | Vomiting (treatment-related adverse event, all grades) [3, 11]: 7 (27) N patients (%) | Anemia (treatment-related adverse event, all grades) [3, 12]: 0 N patients (%) | Anorexia (treatment-related adverse event, all grades) [3, 12]: 0 N patients (%) | Aspartate aminotransferase increased (treatment-related adverse event, all grades) [3, 12]: 0 N patients (%) | Asthenia (treatment-related adverse event, all grades) [3, 12]: 0 N patients (%) | Constipation (treatment-related adverse event, all grades) [3, 12]: 0 N patients (%) | Diarrhea (treatment-related adverse event, all grades) [3, 12]: 0 N patients (%) | Dyspepsia (treatment-related adverse event, all grades) [3, 12]: 0 N patients (%) | Fatigue (treatment-related adverse event, all grades) [3, 12]: 0 N patients (%) | Gamma-glutamyltransferase increased (treatment-related adverse event, all grades) [3, 12]: 0 N patients (%) | Anemia (treatment-related adverse event, all grades) [3, 13]: 0 N patients (%) | Anorexia (treatment-related adverse event, all grades) [3, 13]: 1 (17) N patients (%) | Aspartate aminotransferase increased (treatment-related adverse event, all grades) [3, 13]: 0 N patients (%) | Asthenia (treatment-related adverse event, all grades) [3, 13]: 0 N patients (%) | Constipation (treatment-related adverse event, all grades) [3, 13]: 0 N patients (%) | Diarrhea (treatment-related adverse event, all grades) [3, 13]: 0 N patients (%) | Dyspepsia (treatment-related adverse event, all grades) [3, 13]: 0 N patients (%) | Gamma-glutamyltransferase increased (treatment-related adverse event, all grades) [3, 13]: 0 N patients (%) | Anemia (treatment-related adverse event, all grades) [3, 14]: 1 (33) N patients (%) | Anorexia (treatment-related adverse event, all grades) [3, 14]: 0 N patients (%) | Aspartate aminotransferase increased (treatment-related adverse event, all grades) [3, 14]: 1 (33) N patients (%) | Asthenia (treatment-related adverse event, all grades) [3, 14]: 2 (67) N patients (%) | Constipation (treatment-related adverse event, all grades) [3, 14]: 0 N patients (%) | Diarrhea (treatment-related adverse event, all grades) [3, 14]: 0 N patients (%) | Dyspepsia (treatment-related adverse event, all grades) [3, 14]: 0 N patients (%) | Fatigue (treatment-related adverse event, all grades) [3, 14]: 0 N patients (%) | Gamma-glutamyltransferase increased (treatment-related adverse event, all grades) [3, 14]: 1 (33) N patients (%) | Anemia (treatment-related adverse event, all grades) [3, 15]: 1 (9) N patients (%) | Anorexia (treatment-related adverse event, all grades) [3, 15]: 1 (9) N patients (%) | Aspartate aminotransferase increased (treatment-related adverse event, all grades) [3, 15]: 1 (9) N patients (%) | Asthenia (treatment-related adverse event, all grades) [3, 15]: 4 (36) N patients (%) | Diarrhea (treatment-related adverse event, all grades) [3, 15]: 3 (27) N patients (%) | Dyspepsia (treatment-related adverse event, all grades) [3, 15]: 2 (18) N patients (%) | Fatigue (treatment-related adverse event, all grades) [3, 15]: 4 (36) N patients (%) | Gamma-glutamyltransferase increased (treatment-related adverse event, all grades) [3, 15]: 2 (18) N patients (%) | Anemia (treatment-related adverse event, all grades) [3, 16]: 0 N patients (%) | Aspartate aminotransferase increased (treatment-related adverse event, all grades) [3, 16]: 0 N patients (%) | Asthenia (treatment-related adverse event, all grades) [3, 16]: 0 N patients (%) | Constipation (treatment-related adverse event, all grades) [3, 16]: 1 (33) N patients (%) | Dyspepsia (treatment-related adverse event, all grades) [3, 16]: 0 N patients (%) | Fatigue (treatment-related adverse event, all grades) [3, 16]: 1 N patients (%) | Gamma-glutamyltransferase increased (treatment-related adverse event, all grades) [3, 16]: 0 N patients (%) | abdominal pain, adverse event ([3]; human, in vivo): 35% | anemia, adverse event ([3]; human, in vivo): 23% | anorexia, adverse event ([3]; human, in vivo): 35% | asthenia, adverse event ([3]; human, in vivo): 42% | constipation, adverse event ([3]; human, in vivo): 50% | diarrhea, adverse event ([3]; human, in vivo): 42% | fatigue, adverse event ([3]; human, in vivo): 31% | grade 3–4 lymphopenia (laboratory) ([3]; human, in vivo): 5 patients | headache, adverse event ([3]; human, in vivo): 50% | nausea, adverse event ([3]; human, in vivo): 77% | patients with treatment-related adverse events (TRAEs) ([3]; human, in vivo): 24 (92 %) patients (%) | recommended phase 2 dose ([3]; human, in vivo): 750 mg/day | vomiting, adverse event ([3]; human, in vivo): 65% | Abdominal pain (treatment-related adverse event, all grades) ([3]; human, in vivo, 14 day): 2 (8) N patients (%) | central review of ECGs ([3]; in vivo): no clinically significant abnormalities | patients who withdrew due to adverse events ([3]; in vivo): Four patients | patients with dose delays due to hematological toxicity ([3]; in vivo): three patients | patients with grade 3–4 laboratory hematologic toxicities ([3]; in vivo): Six patients | maximum tolerated dose (MTD) ([3]; with temozolomide 150 mg/m^2): 750 mg/day

O=C(c1cc(Cc2n[nH]c(=O)c3ccccc23)ccc1F)N1CCN(C(=O)C2CC2)CC1 [olaparib]
RECIST responses [4]: 30–40%

CNCc1ccc(-c2[nH]c3cc(F)cc4c3c2CCNC4=O)cc1 [rucaparib]
patients requiring a reduction in the dose of temozolomide due to enhanced myelosuppression [5]: approximately half
